Tested on: T1, Mm3 (β-lactamase from Moss metagenome clone 3; blaMm3)
T1 construct: mix of tagged 35 kDa and 32 kDa species lacking tag
Experiment: spectrophotometric hydrolysis at […] nm, initial rates
Format: biochemical, uncultured bacterium
Details: 20 mM sodium phosphate, 0.2 M NaCl, pH 7.4, 30 °C

SMILES | Km (fitted with the Hill equation (half-saturation constant)) [µM] | Km (fitted with the Michaelis-Menten equation) [µM]
CC1(C)S[C@@H]2[C@H](NC(=O)[C@H](N)c3ccccc3)C(=O)N2[C@H]1C(=O)O [ampicillin] | 271 ± 16.4 | –
CC1(C)S[C@@H]2[C@H](NC(=O)C(C(=O)O)c3ccccc3)C(=O)N2[C@H]1C(=O)O (some centres unmarked) [carbenicillin] | – | 400 ± 42.7
